Consider one compound from patent US20220304978A1, “INHIBITING MESANGIAL CELL ACTIVATION” (Chinook Therapeutics, Inc., priority 2019, published 2022).

Molecules are shown by their SMILES. “Also recorded” adds a separate entry of the source.

Assay [1] has as its system kidney tissue of g-ddY mice. Put plainly: Gene Set Enrichment Analysis (GSEA) hallmark gene sets, g-ddY kidney RNA-seq. The format is in vivo, mouse. The settings on record: 30 mg/kg/day.
Assay [2] concerns ET-1 stimulated HRMC. In words: Hallmark gene set enrichment in ET-1 stimulated HRMC treated with atrasentan. The settings on record: g-ddY and HRMC model systems; HRMC: atrasentan 1 nM and 25 nM with ET-1.
For assay [3], the system named is g-ddY mice. In words: UACR (albuminuria) in g-ddY mouse model of IgA nephropathy. The format is in vivo. From the text: The grouped ddY (g-ddY) mouse is a spontaneous model of early-onset IgA nephropathy characterized by IgA immune complex deposition in the mesangium of the kidney, leading to significant proteinuria, glomerular hypercellularity, mesangioproliferative glomerular lesions, glomerular sclerosis and reduced kidney function, all hallmarks of human IgA nephropathy (J Am Soc Nephrol 23: 1364-1374, 2012). Consistent with human IgA nephropathy, the mesangial IgA deposits in the g-ddY mouse are also accompanied by deposition of IgG and complement C3.

In assay [4] the test system is primary human renal mesangial cells (HRMCs). In words: Proliferation (BrdU) of HRMCs stimulated with IgA-containing immune complexes from IgAN patients. The settings on record: immune complexes purified from three patients with IgA nephropathy. The class given is cell-based. The source says: Primary human mesangial cells in a culture were stimulated with pathogenic galactose deficient (Gd)-IgA containing immune complexes isolated from human IgA nephropathy patients. […] Specifically, pathogenic IgA-containing immune complexes were isolated from serum from either IgA nephropathy patients or age, gender and ethnicity-matched healthy individuals. Frozen serum was purchased from BioIVT and IgA-containing immune complexes were purified using jacalin affinity chromatography. […] Purified IgA-containing immune complexes were concentrated using a 100K Amicon filtration unit and the amount of total IgA and galactose-deficient IgA (Gd-IgA) in the immune complexes was measured by ELISA (ThermoFisher and IBL America, respectively). […] See, e.g., Novak et. al., Kidney International, 67, pp. 504-516; 2005; Novak et. al., Nephrol. Dial. Transplant, 26, pp. 3451-3457; 2011; Liang et. al., Cell Physiol. Biochem., 36, pp. 1793-1808; 2015; Nguyen et. al., Clin. Kidney 1, 12 (2), pp, 232-238; 2019.

Assay [5] relates to kidney tissue of g-ddY mice. In words: Ingenuity Pathway Analysis (IPA) canonical pathways, g-ddY kidney RNA-seq. The class given is in vivo, mouse. As to conditions: 30 mg/kg/day.
Setting [6] is: 20 and 30 mg/kg/day, approximately 5 days.

For the compound `CCCCN(CCCC)C(=O)CN1C[C@H](c2ccc3c(c2)OCO3)[C@@H](C(=O)O)[C@@H]1c1ccc(OC)cc1` [atrasentan, (2R,3R,4S)-4-(1,3-benzodioxol-5-yl)-1-[2-(dibutylamino)-2-oxoethyl]-2-(4-methoxyphenyl)pyrrolidine-3-carboxylic acid], the “cell proliferation associated signaling (mitotic spindle and G2M checkpoint)” value in assay [1] was “reduced”. Also, in assay [1], the inflammatory response signaling result was “reduced”. Also, the “expression of hallmark gene sets (negative enrichment scores)” value in assay [2] was “under-expression”. In addition, the “effect to reduce UACR from baseline compared to the control group” value in assay [3] (10 mg/kg/day) is “not significant”; in assay [3] (20 mg/kg/day, P=0.0498, un-paired t-test) it was “statistically significant”; in assay [3] (30 mg/kg/day, P=0.029) it was “statistically significant”. Further, the “albuminuria compared to baseline” value in assay [3] (10 mg/kg/day, approximately 5 days) is reported as “not significantly changed from baseline”; in assay [3] (20 mg/kg/day, approximately 5 days, P=0.0593) it was “reduced from baseline to a similar extent”; in assay [3] (30 mg/kg/day, approximately 5 days, paired t-test), “significantly (P=0.0002, paired two-sided t-test) reduced”. For the same compound, the “albuminuria compared to control g-ddY mice” value in assay [3] (setting [6]) is listed as “significantly reduced”. Further, in assay [3] (setting [6]), the “albuminuria lowering, reduction from baseline” value is > 60%. Moreover, the “hyperproliferation of HRMCs induced by IgA containing immune complexes” value in assay [4] was “reduces the proliferation; also recorded: significantly attenuated”. For the same compound, the IL-6 signaling result in assay [5] is “reduced”. In assay [5], the NF-κB signaling entry is “reduced”. Further, in assay [5], the PDGF signaling entry was “reduced”.
